{
  "source": "patent US8349318B2",
  "about": "“Use of specifically engineered enzymes to enhance the efficacy of prodrugs” (The Board of Trustees of the University of Illinois, priority 2008, dated 2013)",
  "key": {"[1]": {"biological_target": "T1, R104Q-D133A dCK (Homo sapiens, UniProt P27707, D133A/R104Q)", "T1 construct": "made in house", "T1 sequence (P27707 whole entry R104Q/D133A)": "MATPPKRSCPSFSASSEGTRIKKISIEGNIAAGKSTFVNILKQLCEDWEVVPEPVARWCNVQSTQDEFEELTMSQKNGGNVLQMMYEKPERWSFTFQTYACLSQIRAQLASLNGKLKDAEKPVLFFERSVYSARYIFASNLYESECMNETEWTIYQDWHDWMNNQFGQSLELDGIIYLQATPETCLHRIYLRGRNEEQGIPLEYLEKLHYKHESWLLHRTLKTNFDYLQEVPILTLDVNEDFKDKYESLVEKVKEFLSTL", "experiment": "Kinetic assay of nucleoside phosphorylation by R104Q-D133A dCK", "assay_type": "biochemical", "settings": "nucleoside 200 uM"}, "[2]": {"biological_target": "dCK R104L/D133A (Homo sapiens, UniProt P27707, D133A/R104L)", "sequence (P27707 whole entry R104L/D133A)": "as the sequence (P27707 whole entry R104Q/D133A) above, with Q104L counted along it", "experiment": "Kinetic characterization of nucleoside phosphorylation by dCK R104L/D133A", "settings": "Table 9"}},
  "data": [
    {"compound": "Cc1cn([C@H]2C[C@H](O)[C@@H](CO)O2)c(=O)[nH]c1=O", "note": "[D-dT, D-thymidine]", "values": [
      {"measurement": "kcat R104Q-D133A dCK (with 1 mM ATP as donor)", "setting": "[1]", "result": 0.15, "unit": "s⁻¹"},
      {"measurement": "kcat, R104L/D133A", "setting": "[2]", "result": "3.20 ± 0.07", "unit": "s⁻¹"},
      {"measurement": "Km", "setting": "[2]; read-out: Km, R104L/D133A", "result": "24.3 ± 3.6", "unit": "µM"}
    ]}
  ]
}
